The source made the active and inactive calls. No cut-off for these calls is given here.
What was measured:
[1] = Chemical stability in simulated intestinal fluid assessed as parent compound remaining incubated for 12 hrs by LC-MS/MS analysis; format: ADME, physicochemical; details: simulated gi fluid
[2] = Chemical stability in simulated gastric fluid assessed as parent compound remaining incubated for 12 hrs by LC-MS/MS analysis; format: ADME, physicochemical; details: simulated gi fluid
[3] = Chemical stability of compound in pH 1.2 HCl buffer at 100 uM incubated for 24 hrs by HPLC analysis; format: physicochemical; details: pH 1.2, 24 h
[4] = Chemical stability of compound in pH 4.5 PBS buffer at 100 uM incubated for 24 hrs by HPLC analysis; format: physicochemical; details: pH 4.5, 24 h
[5] = Chemical stability of compound in pH 7.4 PBS buffer at 100 uM incubated for 24 hrs by HPLC analysis; format: physicochemical; details: pH 7.4, 24 h
[6] = Prodrug conversion in Sprague-Dawley rat colon content suspension assessed as tofacitinib release measured upto 8 hrs by HPLC analysis; format: ADME, tissue-based
[7] = Ratio of prodrug conversion in BALB/c mouse intestine assessed as tofacitinib AUC(0 to 12 hrs) at 22.5 mg/kg, po to prodrug conversion in BALB/c mouse ileum assessed as tofacitinib AUC(0 to 12 hrs) at 22.5 mg/kg, po; format: ADME, organism-based; details: in vivo
[8] = Ratio of prodrug conversion in BALB/c mouse intestine assessed as tofacitinib AUC(0 to 12 hrs) at 22.5 mg/kg, po to prodrug conversion in BALB/c mouse jejunum assessed as tofacitinib AUC(0 to 12 hrs) at 22.5 mg/kg, po; format: ADME, organism-based; details: in vivo
[9] = Acute toxicity in Kunming mouse assessed as change in creatine level in kidney at 2000 mg/kg, po measured for 7 days; format: organism-based; details: in vivo, 168 h, time 7 day
[10] = Acute toxicity in Kunming mouse assessed as change in urea level in kidney at 2000 mg/kg, po measured for 7 days; format: organism-based; details: in vivo, 168 h, time 7 day
[11] = Acute toxicity in Kunming mouse assessed as change in ALT level in liver at 2000 mg/kg, po measured for 7 days; format: organism-based; details: in vivo, 168 h, time 7 day
[12] = Acute toxicity in Kunming mouse assessed as change in AST level in liver at 2000 mg/kg, po measured for 7 days; format: organism-based; details: in vivo, 168 h, time 7 day
[13] = Prodrug conversion in Sprague-Dawley rat assessed as tofacitinib release at 22.5 mg/kg, po measured after 1 hr by HPLC analysis; format: ADME, organism-based; details: in vivo
[14] = Prodrug conversion in Sprague-Dawley rat assessed as Cmax of tofacitinib at 22.5 mg/kg, po measured up to 20 hrs by LC-MS/MS analysis; format: ADME, organism-based; parameters: route oral, dose 22.5 mg/kg, time <=20; details: in vivo
[15] = Prodrug conversion in Sprague-Dawley rat assessed as Tmax of tofacitinib at 22.5 mg/kg, po measured up to 20 hrs by LC-MS/MS analysis; format: ADME, organism-based; details: in vivo
[16] = Prodrug conversion in Sprague-Dawley rat assessed as AUC (0 to infinity) of tofacitinib at 22.5 mg/kg, po measured up to 20 hrs by LC-MS/MS analysis; format: ADME, organism-based; parameters: route oral, dose 22.5 mg/kg, time <=20; details: in vivo
[17] = Prodrug conversion in Sprague-Dawley rat assessed as elimination half life of tofacitinib at 22.5 mg/kg, po measured up to 20 hrs by LC-MS/MS analysis; format: ADME, organism-based; details: in vivo
[18] = Prodrug conversion in BALB/c mouse plasma assessed as tofacitinib AUC(0 to 12 hrs) at 22.5 mg/kg, po measured upto 12 hrs by LC-MS/MS analysis; format: ADME, organism-based; parameters: route oral, dose 22.5 mg/kg, time <=12; details: in vivo
[19] = Ratio of prodrug conversion in BALB/c mouse intestine assessed as tofacitinib AUC(0 to 12 hrs) at 22.5 mg/kg, po to prodrug conversion in BALB/c mouse duodenum assessed as tofacitinib AUC(0 to 12 hrs) at 22.5 mg/kg, po; format: ADME, organism-based; details: in vivo
[20] = Prodrug conversion in BALB/c mouse duodenum assessed as tofacitinib AUC(0 to 12 hrs) at 22.5 mg/kg, po measured upto 12 hrs by LC-MS/MS analysis; format: ADME, organism-based; parameters: route oral, dose 22.5 mg/kg, time <=12; details: in vivo
[21] = Prodrug conversion in BALB/c mouse jejunum assessed as tofacitinib AUC(0 to 12 hrs) at 22.5 mg/kg, po measured upto 12 hrs by LC-MS/MS analysis; format: ADME, organism-based; parameters: route oral, dose 22.5 mg/kg, time <=12; details: in vivo
[22] = Prodrug conversion in BALB/c mouse ileum assessed as tofacitinib AUC(0 to 12 hrs) at 22.5 mg/kg, po measured upto 12 hrs by LC-MS/MS analysis; format: ADME, organism-based; parameters: route oral, dose 22.5 mg/kg, time <=12; details: in vivo
[23] = Prodrug conversion in BALB/c mouse colon assessed as tofacitinib AUC(0 to 12 hrs) at 22.5 mg/kg, po measured upto 12 hrs by LC-MS/MS analysis; format: ADME, organism-based; parameters: route oral, dose 22.5 mg/kg, time <=12; details: in vivo
Mus musculus [24] = assay: Anti-ulcerative colitis activity against oxazolone induced ulcerative colitis Balb/c mouse model assessed as prevention of body weight loss at 1.5 mg/kg, po bid incubated for 24 hrs; format: functional, organism-based
Mus musculus [25] = assay: Anti-ulcerative colitis activity against oxazolone induced ulcerative colitis Balb/c mouse model assessed as prevention of body weight loss at 1.5 mg/kg, po bid measured after 36 hrs; format: functional, organism-based
Mus musculus [26] = assay: Anti-ulcerative colitis activity against oxazolone induced ulcerative colitis BALB/c mouse model assessed as improved stool consistency at 1.5 mg/kg, po bid measured after 36 hrs; format: functional, organism-based
Mus musculus [27] = assay: Anti-ulcerative colitis activity against BALB/c mouse model of oxazolone-induced ulcerative colitis assessed as prevention of oxazolone-induced increase in colon density at 1.5 mg/kg, po bid measured after 4 days; format: functional, organism-based; details: time 4.0 day
Mus musculus [28] = assay: Anti-ulcerative colitis activity against BALB/c oxazolone-induced ulcerative colitis mouse model assessed as prevention of oxazolone-induced increase in colon weight at 1.5 mg/kg, po bid measured after 4 days; format: functional, organism-based; details: time 4.0 day
Mus musculus [29] = assay: Anti-ulcerative colitis activity against BALB/c oxazolone-induced ulcerative colitis mouse model assessed as prevention of oxazolone-induced increase in shortening of colon length at 1.5 mg/kg, po bid measured after 4 days; format: functional, organism-based; details: time 4.0 day
Mus musculus [30] = assay: Anti-ulcerative colitis activity against oxazolone-induced ulcerative colitis BALB/c mouse model assessed as improvement in spleen index at 1.5 mg/kg, po bid measured after 4 days; format: functional, organism-based; details: time 4.0 day
Mus musculus [31] = assay: Anti-ulcerative colitis activity against BALB/c oxazolone-induced ulcerative colitis mouse model assessed as prevention of oxazolone-induced edema at 1.5 mg/kg, po by H and E staining based histopathological analysis; format: functional, organism-based
Mus musculus [32] = assay: Anti-ulcerative colitis activity against BALB/c oxazolone-induced ulcerative colitis mouse model assessed as prevention of oxazolone-induced leukocyte infiltration at 1.5 mg/kg, po by H and E staining based histopathological analysis; format: functional, organism-based
Mus musculus [33] = assay: Anti-ulcerative colitis activity against BALB/c oxazolone-induced ulcerative colitis mouse model assessed as preserved intestinal mucosal epithelial integrity at 1.5 mg/kg, po by H and E staining based histopathological analysis; format: functional, organism-based
Mus musculus [34] = assay: Immunosuppressive activity in BALB/c mouse assessed as reduction in CD49+ NK cell count at 1.5 mg/kg, ig bid measured after 4 days by flow cytometry analysis; format: functional, organism-based; details: time 4.0 day
Mus musculus [35] = assay: Immunosuppressive activity in BALB/c mouse assessed as reduction in spleen index at 1.5 mg/kg, ig bid measured after 4 days by flow cytometry analysis; format: functional, organism-based; details: time 4.0 day
[36] = Acute toxicity in Kunming mouse assessed as animal death at 2000 mg/kg, po measured for 7 days; format: organism-based; details: in vivo, 168 h, time 7 day
[37] = Acute toxicity in Kunming mouse model assessed as increase in body weight at 2000 mg/kg, po measured for 7 days; format: organism-based; details: in vivo, 168 h, time 7 day
[38] = Toxicity in Kunming mouse assessed as change in liver index at 2000 mg/kg, po measured for 7 days; format: organism-based; details: in vivo, 168 h, time 7 day
[39] = Toxicity in Kunming mouse assessed as change in kidney index at 2000 mg/kg, po measured for 7 days; format: organism-based; details: in vivo, 168 h, time 7 day
[40] = Toxicity in Kunming mouse assessed as change in spleen index at 2000 mg/kg, po measured for 7 days; format: organism-based; details: in vivo, 168 h, time 7 day
[41] = Ratio of prodrug conversion in BALB/c mouse intestine assessed as tofacitinib AUC(0 to 12 hrs) at 22.5 mg/kg, po to prodrug conversion in BALB/c mouse colon assessed as tofacitinib AUC(0 to 12 hrs) at 22.5 mg/kg, po; format: ADME, organism-based; details: in vivo
Mus musculus [42] = assay: Anti-ulcerative colitis activity against oxazolone induced ulcerative colitis BALB/c mouse model assessed as improved stool blood at 1.5 mg/kg, po bid measured after 36 hrs; format: functional, organism-based

COc1cc(/N=N/c2ccc(O)c(C(=O)O)c2)ccc1COC(=O)N(C)CCN(C)C(=O)n1ccc2c(N(C)[C@H]3CN(C(=O)CC#N)CC[C@H]3C)ncnc21
Stability [1]: Stable
Stability [2]: Stable
Stability [3]: Stable
Stability [4]: Stable
Stability [5]: Stable
Drug metabolism [6]: 2.44 mmol/L/h

Cc1cc(/N=N/c2ccc(O)c(C(=O)O)c2)ccc1COC(=O)N(C)CCN(C)C(=O)n1ccc2c(N(C)[C@H]3CN(C(=O)CC#N)CC[C@H]3C)ncnc21
Stability [1]: Stable
Stability [2]: Stable
Stability [3]: Stable
Stability [4]: Stable
Stability [5]: Stable
Drug metabolism [6]: 2.72 mmol/L/h

C[C@@H]1CCN(C(=O)CC#N)C[C@@H]1N(C)c1ncnc2c1ccn2C(=O)N(C)CCN(C)C(=O)OCc1ccc(/N=N/c2ccc(O)c(C(=O)O)c2)cc1
Stability [1]: Stable
Stability [2]: Stable
Stability [3]: Stable
Stability [4]: Stable
Stability [5]: Stable
Drug metabolism [6]: 2.114 mmol/L/h

COc1cc(COC(=O)N(C)CCN(C)C(=O)n2ccc3c(N(C)[C@H]4CN(C(=O)CC#N)CC[C@H]4C)ncnc32)ccc1/N=N/c1ccc(O)c(C(=O)O)c1
Stability [1]: Stable
Stability [2]: Stable
Stability [3]: Stable
Stability [4]: Stable
Stability [5]: Stable
Drug metabolism [6]: 2.46 mmol/L/h

C[C@@H]1CCN(C(=O)CC#N)C[C@@H]1N(C)c1ncnc2c1ccn2C(=O)N(C)CCN(C)C(=O)OCc1ccc(/N=N/c2ccc(O)c(C(=O)O)c2)cc1Cl
Ratio AUC [7]: 7.1
Ratio AUC [8]: 4.49
Activity [9]: Non-Toxic
Activity [10]: Non-Toxic
Activity [11]: Non-Toxic
Activity [12]: Non-Toxic
Stability [1]: Stable
Stability [2]: Stable
Stability [3]: Stable
Stability [4]: Stable
Stability [5]: Stable
Drug metabolism [6]: 3.22 mmol/L/h
Drug metabolism [13]: Metabolite_Detected
Cmax [14]: 2490 nM
Tmax [15]: 8 h
AUC [16]: 19.27 µM·h
beta t1/2 [17]: 3.09 h
AUC [18]: 4.5 µM·h
Ratio AUC [19]: 1.48
AUC [20]: 99 µM·h
AUC [21]: 193 µM·h
AUC [22]: 357 µM·h
AUC [23]: 1600 µM·h
Activity (Mus musculus [24]): Active
Activity (Mus musculus [25]): Active
Activity (Mus musculus [26]): Active
Activity (Mus musculus [27]): Active
Activity (Mus musculus [28]): Active
Activity (Mus musculus [29]): Active
Activity (Mus musculus [30]): Active
Activity (Mus musculus [31]): Active
Activity (Mus musculus [32]): Active
Activity (Mus musculus [33]): Active
Activity (Mus musculus [34]): inactive
Activity (Mus musculus [35]): inactive
Activity [36]: Non-Toxic
Activity [37]: Non-Toxic
Activity [38]: Non-Toxic
Activity [39]: Non-Toxic
Activity [40]: Non-Toxic
Ratio AUC [41]: 9.61
Activity (Mus musculus [42]): Active
